Measured values from patent US7238376B2, “Black tea extract for prevention of disease” (Rutgers, The State University, priority 2000, dated 2007).

Assays:
[1] = test system: human lymphoid leukemia cells and human stomach tumor cells; details: Hibasami et al. 1998; cited from earlier work
[2] = test system: W138VA cells; assay: proliferation assay, crystal violet staining; format: cell-based, human; details: 0, 1, 5, 10, 25 and 50 μM; 4 days
Method: The effects of black tea polyphenols on proliferation of W138 and W138VA cells was examined. W138 diploid fibroblasts have a finite life span whereas the virally transformed W138VA cells are cancerous in nude mice. Both cell types were grown in 24 well plates in the presence of increasing doses of the theaflavin polyphenols, TF-1, TF-2 and TF-3 (0, 1, 5, 10, 25 and 50 μM). Viable cells were stained with crystal violet 4 days after plating. A decrease in staining intensity relative to the untreated control cells were indicative of growth inhibition by the polyphenol compound. Of the three theaflavin polyphenols tested, only TF-2 had significant effects on cells growth. […] The IC50 value for TF-2 and growth inhibition of W138VA cells was estimated to be 3 μM.
Normal human W138 (cell strain AG06814E, PDL=16) and the SV40 virally transformed W138 cells (cell strain AG07217) were obtained from Coriell Institute for Medical Research (Camden, N.J.). Human colon cancer cells, Caco-2 (ATCC #HTB-37) and the matched normal colon cells CCD-33Co (ATCC #CRL-1539) were obtained from the American Type Culture Collection (Rockville, Md.). Cells were cultured in Dulbecco's medium containing 10% fetal bovine serum at 37° C., 5% CO2. […] Cell growth was measured by counting viable cells using the Trypan Blue exclusion method. […] Proliferation was monitored by crystal-violet staining. […]

[3] = test system: Cox-2 gene expression; assay: Cox-2 gene expression in Caco-2 cells (Northern blot / RT-PCR); format: cell-based, human; details: TF-2 effects seen at 50 to 100 μM
Method: All three polyphenols were tested, TF-1, TF-2 and TF-3.
The effect of TF-2 on the time course of Cox-2 gene expression in Caco-2 cells was then examined. Cox-2 mRNA was detectable in quiescent Caco-2 cells, consistent with the finding that colon cancer cells have elevated Cox-2 gene expression. Fresh serum induced a 2- to 4-fold increase in Cox-2 expression in Caco-2 cells as early as 4 hours after stimulation; this was expected because of the known stimulatory effects of serum factors.
Confluent cultures were serum-deprived for 48 hours. Cells were then treated with 10% fresh fetal bovine serum in the presence or absence of the black tea extracts (10, 20, 40, 50, 80 or 100 μM) to initiate the progression of the cell cycle. Cells were harvested at either 4 or 12 hours for total RNA isolation. Total RNA samples were resolved by electrophoresis on 1% agarose-formaldehyde gel (6 μg per lane) and transferred onto a nylon membrane. Northern blot analysis was performed.
Confluent cultures were first serum-deprived for 48 hours and then stimulated with 10% fresh fetal bovine serum in the absence or presence of black tea extracts. Cells were harvested and total RNA was prepared using a kit (QIAGEN, Chatsworth, Calif.). Total RNA (1 μg) from each cell sample was reverse transcribed into cDNA by incubating with RNase H reverse transcriptase (Gibco BRL, Grand Island, N.Y.) using oligo(dT)12-18 as primer. For PCR amplification, gene specific primers were designed. The sequences of the sense and antisense primers for various genes were: […]
PCR was performed under conditions that allowed the amounts of PCR products to be proportional to the amounts of RNA input. The housekeeping gene, glyceraldehyde-3-phosphate dehydrogenase (GAPDH) was used as an internal control. The PCR products were analyzed by electrophoresis on 1% agarose gel containing 0.5 μg/ml ethidium bromide.

[4] = test system: EGF and PDGF receptors; details: compared with EGCG; Liang et al. 1999; cited from earlier work
[5] = test system: human A431 carcinoma cells; details: compared with EGCG; Liang et al. 1999; cited from earlier work
[6] = test system: normal counterparts; details: Chen et al. 1998; cited from earlier work
[7] = test system: Caco-2 colorectal cancer cells, Hs578T breast cancer cells, and SV40-transformed W138 cells; details: Chen et al. 1998; cited from earlier work

Row | Cox-2 gene expression in Caco-2 cells [3] | Compound | apoptosis in human lymphoid leukemia cells and human stomach tumor cells [1] | differential growth inhibition of W138 versus W138VA cells [2] | reducing autophosphorylation of EGF and PDGF receptors [4] | inhibiting the growth of human A431 carcinoma cells [5] | growth of normal counterparts [6] | growth of human tumor cells [7]
1 | failed to affect Cox-2 gene expression | O=c1c(O)cc([C@H]2Oc3cc(O)cc(O)c3C[C@H]2O)cc2c([C@H]3Oc4cc(O)cc(O)c4C[C@H]3O)cc(O)c(O)c12 [TF-1, theaflavin] | can induce apoptosis | did not exhibit this differential growth inhibition | – | – | – | –
2 | failed to affect Cox-2 gene expression | O=C(O[C@@H]1Cc2c(O)cc(O)cc2O[C@@H]1c1cc(O)c(=O)c2c(O)c(O)cc([C@H]3Oc4cc(O)cc(O)c4C[C@H]3OC(=O)c3cc(O)c(O)c(O)c3)c2c1)c1cc(O)c(O)c(O)c1 [TF-3, theaflavin-3,3′-digallate] | can induce apoptosis | did not exhibit this differential growth inhibition | as potent as EGCG | as potent as EGCG | – | –

Row | Compound | Cox-2 gene expression in Caco-2 cells [3] | apoptosis in human lymphoid leukemia cells and human stomach tumor cells [1] | differential growth inhibition of W138 versus W138VA cells [2] | reducing autophosphorylation of EGF and PDGF receptors [4] | inhibiting the growth of human A431 carcinoma cells [5] | growth of normal counterparts [6] | growth of human tumor cells [7]
3 | (−)epigallocatechin gallate [EGCG] | suppressed Cox-2 gene expression it was not as potent as TF-2 | – | – | – | – | little or no inhibitory effect | inhibits growth
